PubChem BioAssay (NCI)
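Exposure lasted 48 hours, with cells grown in 96-well plates and compounds tested at five concentrations. TGI: concentration producing complete growth inhibition.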

How the values were obtained:
Assay in all cases: NCI-60 cell line screen, 48 h
[1] = tested on: SF-295 CNS
[2] = tested on: CCRF-CEM leukemia
[3] = tested on: BT-549 breast
[4] = tested on: NCI-H522 lung
[5] = tested on: HT29 colon
[6] = tested on: RPMI-8226 leukemia
[7] = tested on: SNB-19 CNS
[8] = tested on: OVCAR-4 ovarian
[9] = tested on: HS 578T breast
[10] = tested on: MCF7 breast

Compound	TGI [1]	TGI [2]	TGI [3]	TGI [4]	TGI [5]	TGI [6]	TGI [7]	TGI [8]	TGI [9]	TGI [10]
O=C1c2ccccc2C(=O)c2nn(N=P(CP(=Nn3nc4c(n3)C(=O)c3ccccc3C4=O)(c3ccccc3)c3ccccc3)(c3ccccc3)c3ccccc3)nc21	> 100 µM	> 100 µM	> 100 µM	> 100 µM	> 100 µM	> 100 µM	> 100 µM	> 100 µM	> 100 µM	> 100 µM
Nn1c(Sc2nc3ccccc3c(=O)n2N)nc2ccccc2c1=O	42.1 µM	4.51 µM	6.38 µM	3.57 µM	14.3 µM	11.5 µM	24.6 µM	> 100 µM	> 53.7 µM	27.4 µM
COc1cc2c(cc1O)CCN(C)[C@H]2Cc1ccc(Oc2c(O)c(OC)cc3c2C[C@H]2c4c(c(OC)c(OC)c(OC)c4-3)CCN2C)cc1	11.3 µM	9.28 µM	11.8 µM	11.2 µM	7.35 µM	5.09 µM	12.5 µM	4.38 µM	17.7 µM	10.7 µM
NC1c2c(Cl)sc(Cl)c2C(=O)C1O (stereo not given)	> 100 µM	37.7 µM	47.6 µM	41.6 µM	33.9 µM	–	> 100 µM	50.4 µM	> 100 µM	66 µM
Cc1ccc(NC2=N/C(=C/c3ccco3)C(Cl)=N2)cc1	> 100 µM	> 100 µM	> 100 µM	> 100 µM	> 100 µM	> 100 µM	> 100 µM	> 100 µM	> 100 µM	> 100 µM
NC(=S)N/N=C1\CCCC1C(O)(C(F)(F)Cl)C(F)(F)Cl (stereo not given)	> 10 µM	> 10 µM	> 10 µM	> 10 µM	> 10 µM	> 10 µM	> 10 µM	> 10 µM	> 10 µM	> 10 µM
CCN(CC)C1Oc2cc3c(cc2C(c2cc(OC)c(OC)c(OC)c2)C1C)OCO3 (stereo not given)	10 µM	> 22.9 µM	> 58.4 µM	6.01 µM	9.95 µM	20.2 µM	> 53 µM	> 100 µM	> 100 µM	> 50 µM
O=c1[nH]c2cc([N+](=O)[O-])c(Nc3c4ccccc4nc4ccccc34)c([N+](=O)[O-])c2[nH]1	11.2 µM	24.3 µM	23 µM	3.63 µM	9.33 µM	8.25 µM	26.7 µM	13.9 µM	> 28.9 µM	8.36 µM
COc1cc2oc(-c3ccc4c(c3)OCO4)c(OC)c(=O)c2c(O)c1OC	> 50 µM	> 50 µM	> 50 µM	> 50 µM	> 50 µM	–	> 50 µM	> 50 µM	> 50 µM	> 50 µM
C=CC(OC(C)=O)c1ccc(OC(C)=O)cc1 (stereo not given)	22.1 µM	–	23.9 µM	3.57 µM	32.7 µM	5.92 µM	28.7 µM	37.5 µM	16.6 µM	26.5 µM
CC1CN=C(c2ccc(-c3nc(-c4ccc(C5=NCC(C)N5)cc4)nc(N(C)C)n3)cc2)N1 (stereo not given)	15.8 µM	3.59 µM	13.7 µM	3.2 µM	7.33 µM	17.9 µM	6.73 µM	3.67 µM	17.6 µM	4.71 µM
CC(C)(Cc1ccccc1)N1C(=O)N1C(C)(C)Cc1ccccc1	–	61.3 µM	> 100 µM	60.6 µM	32.9 µM	38.5 µM	> 100 µM	> 100 µM	> 100 µM	> 100 µM
N#Cc1c(N2CCN(c3ccc([N+](=O)[O-])cc3)CC2)[n+](=O)c2ccc(-c3ccc([N+](=O)[O-])cc3)cc2n1[O-]	> 100 µM	> 100 µM	> 100 µM	> 100 µM	> 100 µM	> 75 µM	> 100 µM	> 100 µM	> 100 µM	> 100 µM
COC(=O)C1CC23C=CCN4CC(C2C)C2(c5ccccc5NC12)C43 (stereo not given)	> 100 µM	> 100 µM	> 100 µM	> 100 µM	> 100 µM	> 100 µM	> 100 µM	> 100 µM	> 100 µM	> 100 µM
CC(C)(C)C(=O)N1CCN(C=O)C1=S	> 100 µM	97.6 µM	> 100 µM	> 100 µM	> 100 µM	> 100 µM	> 100 µM	> 100 µM	> 100 µM	64.5 µM
COC1(OC)C=CC(=O)C=C1	23.9 µM	22.4 µM	14.2 µM	0.885 µM	12.1 µM	13.5 µM	30.2 µM	16.7 µM	> 40.5 µM	8.42 µM
COc1cc(C)cc2c(-c3c(O)cc(O)c4c3C[C@H](C)N[C@H]4C)cc(-c3cc(-c4c(O)cc(O)c5c4C[C@H](C)N[C@H]5C)c4cc(C)cc(OC)c4c3O)c(O)c12	> 100 µM	> 100 µM	> 100 µM	> 100 µM	> 100 µM	> 100 µM	> 100 µM	> 100 µM	> 100 µM	> 100 µM
CC(=Nc1cc(Cl)cc(Cl)c1)c1ccncc1	> 100 µM	> 100 µM	> 100 µM	> 100 µM	> 100 µM	> 100 µM	> 100 µM	> 100 µM	> 100 µM	> 100 µM
O=[N+]([O-])c1ccc2c(c1)n1c(N3CCCC3)[n+]3ccccc3c1c1c3cccc[n+]3c(N3CCCC3)n21	> 100 µM	79.9 µM	> 100 µM	> 100 µM	–	> 100 µM	> 100 µM	> 100 µM	> 100 µM	> 100 µM
